# Assay results published in patent EP4810038A1, “METHOD FOR TREATING ALK-POSITIVE OR ROS1-POSITIVE NON-SMALL CELL LUNG CANCER” (Shenzhen TargetRx Co., Ltd., priority 2023, dated 2025).
# Test system: ALK-positive or ROS1-positive advanced non-small cell lung cancer
# Experiment: Phase I clinical trial, dose escalation and expansion phases: efficacy (RECIST 1.1)
# Format: in vivo, human
# Procedure: The anti-tumor efficacy is evaluated according to RECIST version 1.1. For patients initially evaluated as having a complete response (CR) or partial response (PR), efficacy should be confirmed at least 4 weeks later. In the patients with asymptomatic central nervous system (CNS) metastases, in addition to evaluating 5 extracranial target lesions, up to 5 intracranial target lesions will also be evaluated. The specific indicators are as follows:
# "CR" is defined as the disappearance of all target lesions, and the diameters of the short axis of all the pathological lymph nodes (whether target or non-target lymph nodes) must be reduced to 10 mm or less.
# "PR" is defined as a reduction of at least 30% in the total diameter of the target lesions, with the total diameter of the baseline as a reference value.
# "PD" is defined as an increase of at least 20% in the total diameter of the target lesions, using the minimum total diameter in the study as a reference value (this value may include the total diameter of the baseline). In addition, the absolute value of the total diameter must increase by at least 5 mm (the appearance of one or more new lesions is also considered as progressive disease).
# "SD" is defined as a state in which the reduction in target lesions is insufficient to achieve partial response and the increase is insufficient to achieve progressive disease.
# "ORR" includes CR and PR, and is defined as the proportion of patients who achieve complete response or partial response.
# "IC-ORR" includes CR or PR for confirmed intracranial lesions, and is defined as the proportion of the patients with complete response or partial response of intracranial lesions among the patients with intracranial lesions.
# "DCR" is defined as the proportion of the patients who achieve response (PR+CR) and stable disease (SD) after a treatment.
# "IC-DCR" is defined as the proportion of the patients who achieve intracranial response (PR+CR), intracranial stable disease (SD), and […] after a treatment among the patients with intracranial lesions.
# "DOR" is defined as the time from the first assessment of CR or PR to progressive disease or death, and is only applicable to the patients who achieve response.
# "IC-DOR" is defined as the time from the first assessment of intracranial CR or intracranial PR to progressive disease or death, and is only applicable to the patients whose intracranial lesions achieve response.
# "TTR" is defined as the time from patient enrollment (first dose of investigational drug) to tumor response (CR/PR), based on the patients with objective response.
# "IC-TTR" is defined as the time from patient enrollment (first dose of investigational drug) to intracranial tumor response (IC-CR/PR), based on the patients with intracranial objective response.
# Approximately eight dose groups in total were set in the dose escalation phase, which were 5 (the starting dose), 10, 20, 40, 60, 80, 100, and 125 mg, respectively. Subjects in all the dose groups received a single dose on day 1 (D1), and the blood samples were collected for pharmacokinetic (PK) assay and tolerability observation. If no grade 2 or a higher-level adverse event related to the investigational drug occurred during the single-dose period (5 to 7 days) (if such events occurred, dose adjustments would be made based on the toxicity according to the protocol), the subject entered the multiple-dose period (i.e., treatment period) 5 to 7 days later (7 days after the first administration in the first dose group (i.e., starting the multiple-dose treatment on day 8), and the intervals for the subsequent dose groups were determined based on the obtained tolerability and PK data). […]
compound,measurement,setting,value
"[2H]C([2H])([2H])n1nc2c(c1C#N)-c1cnc(N)c(c1)O[C@H](C)c1cc(F)ccc1C(=O)N(C)C2 [compound A, (10R)-7-amino-12-fluoro-2-(methyl-d3)-10,16-dimethyl-15-oxo-10,15,16,17-tetrahydro-2H-8,4-(metheno)pyrazolo[4,3-h][2,5,11]benzoxadiazacyclotetradecine-3-carbonitrile]",BOR CR,"intracranial, 10mg (N=1)",0 n (%)
same,BOR NE,"intracranial, 10mg (N=1)",0 n (%)
same,BOR PD,"intracranial, 10mg (N=1)",0 n (%)
same,BOR PR,"intracranial, 10mg (N=1)",1 (100) n (%)
same,BOR SD,"intracranial, 10mg (N=1)",0 n (%)
same,Confirmed IC-ORR (95% CI),"intracranial, 10mg (N=1)","1 (100) (2.5, 100.0) n (%)"
same,IC-DCR (95% CI),"intracranial, 10mg (N=1)","1 (100) (2.5, 100.0) n (%)"
same,Median IC-DOR (95% CI),"intracranial, 10mg (N=1)","5.55 (-, -) months"
same,Median IC-TTR (range),"intracranial, 10mg (N=1)","1.35 (1.35, 1.35) months"
same,BOR CR,"intracranial, 20mg (N=1)",0 n (%)
same,BOR NE,"intracranial, 20mg (N=1)",0 n (%)
same,BOR PD,"intracranial, 20mg (N=1)",0 n (%)
same,BOR PR,"intracranial, 20mg (N=1)",1 (100) n (%)
same,BOR SD,"intracranial, 20mg (N=1)",0 n (%)
same,Confirmed IC-ORR (95% CI),"intracranial, 20mg (N=1)","1 (100) (2.5, 100.0) n (%)"
same,IC-DCR (95% CI),"intracranial, 20mg (N=1)","1 (100) (2.5, 100.0) n (%)"
same,Median IC-TTR (range),"intracranial, 20mg (N=1)","1.35 (1.35, 1.35) months"
same,BOR CR,"intracranial, 40mg (N=4)",0 n (%)
same,BOR NE,"intracranial, 40mg (N=4)",1 (25.0) n (%)
same,BOR PD,"intracranial, 40mg (N=4)",0 n (%)
same,BOR PR,"intracranial, 40mg (N=4)",0 n (%)
same,BOR SD,"intracranial, 40mg (N=4)",3 (75.0) n (%)
same,Confirmed IC-ORR (95% CI),"intracranial, 40mg (N=4)","0 (0.0, 60.2) n (%)"
same,IC-DCR (95% CI),"intracranial, 40mg (N=4)","3 (75.0) (19.4, 99.4) n (%)"
same,BOR CR,"intracranial, 60mg (N=2)",0 n (%)
same,BOR NE,"intracranial, 60mg (N=2)",0 n (%)
same,BOR PD,"intracranial, 60mg (N=2)",0 n (%)
same,BOR PR,"intracranial, 60mg (N=2)",2 (100) n (%)
same,BOR SD,"intracranial, 60mg (N=2)",0 n (%)
same,Confirmed IC-ORR (95% CI),"intracranial, 60mg (N=2)","2 (100) (15.8, 100.0) n (%)"
same,IC-DCR (95% CI),"intracranial, 60mg (N=2)","2 (100) (15.8, 100.0) n (%)"
same,Median IC-DOR (95% CI),"intracranial, 60mg (N=2)","17.97 (-, -) months"
same,Median IC-TTR (range),"intracranial, 60mg (N=2)","4.11 (1.35, 6.87) months"
same,BOR CR,"intracranial, 80mg (N=4)",0 n (%)
same,BOR NE,"intracranial, 80mg (N=4)",1 (25.0) n (%)
same,BOR PD,"intracranial, 80mg (N=4)",0 n (%)
same,BOR PR,"intracranial, 80mg (N=4)",1 (25.0) n (%)
same,BOR SD,"intracranial, 80mg (N=4)",2 (50.0) n (%)
same,Confirmed IC-ORR (95% CI),"intracranial, 80mg (N=4)","1 (25.0) (0.6, 80.6) n (%)"
same,IC-DCR (95% CI),"intracranial, 80mg (N=4)","3 (75.0) (19.4, 99.4) n (%)"
same,Median IC-TTR (range),"intracranial, 80mg (N=4)","1.51 (1.51, 1.51) months"
same,BOR CR,"intracranial, 100mg (N=2)",0 n (%)
same,BOR NE,"intracranial, 100mg (N=2)",0 n (%)
same,BOR PD,"intracranial, 100mg (N=2)",0 n (%)
same,BOR PR,"intracranial, 100mg (N=2)",0 n (%)
same,BOR SD,"intracranial, 100mg (N=2)",2 (100) n (%)
same,Confirmed IC-ORR (95% CI),"intracranial, 100mg (N=2)","0 (0.0, 84.2) n (%)"
same,IC-DCR (95% CI),"intracranial, 100mg (N=2)","2 (100) (15.8, 100.0) n (%)"
same,BOR CR,"intracranial, 125mg (N=1)",0 n (%)
same,BOR NE,"intracranial, 125mg (N=1)",0 n (%)
same,BOR PD,"intracranial, 125mg (N=1)",0 n (%)
same,BOR PR,"intracranial, 125mg (N=1)",0 n (%)
same,BOR SD,"intracranial, 125mg (N=1)",1 (100) n (%)
same,Confirmed IC-ORR (95% CI),"intracranial, 125mg (N=1)","0 (0.0, 97.5) n (%)"
same,IC-DCR (95% CI),"intracranial, 125mg (N=1)","1 (100) (2.5,100.0) n (%)"
same,BOR CR,"systemic, 5mg (N=1)",0 n (%)
same,BOR NE,"systemic, 5mg (N=1)",0 n (%)
same,BOR PD,"systemic, 5mg (N=1)",0 n (%)
same,BOR PR,"systemic, 5mg (N=1)",0 n (%)
same,BOR SD,"systemic, 5mg (N=1)",1 (100) n (%)
same,Confirmed ORR (95% CI),"systemic, 5mg (N=1)","0 (0.0, 97.5) n (%)"
